Reference: the CheMixHub viscosity set
± gives the uncertainty stated by the source.

Assay: xn = mol fraction of the nth substance listed

CC(=O)CC(C)=O + CO
303.15 K, 101 kPa
Conditions	viscosity [mPa·s]
x1 = 0.0502	0.51 ± 0.004
x1 = 0.1002	0.516 ± 0.004
x1 = 0.3002	0.547 ± 0.004
x1 = 0.5	0.579 ± 0.004
x1 = 0.6983	0.611 ± 0.004
x1 = 0.9004	0.645 ± 0.005
x1 = 0.9511	0.655 ± 0.005

Cc1ccc(C(C)C)cc1 + COC(C)(C)C
298.15 K, 101.33 kPa
Conditions	viscosity [mPa·s]
x2 = 0.0616	0.7751 ± 0.0071
x2 = 0.1556	0.7225 ± 0.0067
x2 = 0.3301	0.6338 ± 0.006
x2 = 0.4987	0.5524 ± 0.0055
x2 = 0.5665	0.5253 ± 0.0054
x2 = 0.6911	0.4605 ± 0.0051
x2 = 0.7665	0.4272 ± 0.005
x2 = 0.8304	0.3998 ± 0.0049
x2 = 0.8734	0.3814 ± 0.0048
x2 = 0.9298	0.3583 ± 0.0047
x2 = 0.9644	0.3467 ± 0.0047

C=CC#N + COC(C)=O
viscosity [mPa·s]
Conditions	298.15 K	303.15 K	308.15 K
101.3 kPa, x1 = 0.1018	–	0.3427 ± 0.0031	–
101.3 kPa, x1 = 0.1999	–	0.3428 ± 0.0031	–
101.3 kPa, x1 = 0.3006	–	0.3407 ± 0.0031	–
101.3 kPa, x1 = 0.4001	–	0.338 ± 0.0031	–
101.3 kPa, x1 = 0.4946	–	0.3357 ± 0.0031	–
101.3 kPa, x1 = 0.6012	–	0.3319 ± 0.0031	–
101.3 kPa, x1 = 0.6955	–	0.3283 ± 0.0031	–
101.3 kPa, x1 = 0.8014	–	0.3242 ± 0.0031	–
101.3 kPa, x1 = 0.896	–	0.3198 ± 0.0031	–
101.33 kPa, x1 = 0.0617	0.389 ± 0.006	0.371 ± 0.006	0.354 ± 0.006
101.33 kPa, x1 = 0.1961	0.385 ± 0.006	0.367 ± 0.006	0.351 ± 0.006
101.33 kPa, x1 = 0.3042	0.38 ± 0.006	0.362 ± 0.006	0.349 ± 0.006
101.33 kPa, x1 = 0.4041	0.375 ± 0.006	0.357 ± 0.006	0.345 ± 0.006
101.33 kPa, x1 = 0.5024	0.37 ± 0.006	0.353 ± 0.006	0.34 ± 0.005
101.33 kPa, x1 = 0.6004	0.365 ± 0.006	0.348 ± 0.006	0.335 ± 0.005
101.33 kPa, x1 = 0.7033	0.36 ± 0.006	0.343 ± 0.006	0.33 ± 0.005
101.33 kPa, x1 = 0.8037	0.355 ± 0.006	0.336 ± 0.005	0.322 ± 0.005
101.33 kPa, x1 = 0.8416	0.353 ± 0.006	0.333 ± 0.005	0.319 ± 0.005

CCC(C)(C)O + COC(C)=O
298.15 K, 101.33 kPa
Conditions	viscosity [mPa·s]
x2 = 0.1632	1.792 ± 0.018
x2 = 0.2443	1.33 ± 0.015
x2 = 0.35	0.96 ± 0.013
x2 = 0.448	0.787 ± 0.012
x2 = 0.5246	0.677 ± 0.012
x2 = 0.6222	0.57 ± 0.011
x2 = 0.7221	0.496 ± 0.011
x2 = 0.8153	0.434 ± 0.011
x2 = 0.9107	0.395 ± 0.011

CCC(C)(C)O + COc1ccccc1
viscosity [mPa·s], 101.33 kPa
Conditions	x2 = 0.1	x2 = 0.2	x2 = 0.2997	x2 = 0.4001	x2 = 0.5007	x2 = 0.5997	x2 = 0.7012	x2 = 0.8005	x2 = 0.9
303.15 K	2.246 ± 0.027	1.792 ± 0.021	1.463 ± 0.017	1.232 ± 0.015	1.079 ± 0.013	0.988 ± 0.012	0.941 ± 0.011	0.922 ± 0.011	0.917 ± 0.011
313.15 K	1.623 ± 0.019	1.339 ± 0.016	1.125 ± 0.014	0.976 ± 0.012	0.885 ± 0.011	0.831 ± 0.01	0.808 ± 0.01	0.799 ± 0.01	0.792 ± 0.01
323.15 K	1.206 ± 0.014	1.023 ± 0.012	0.885 ± 0.011	0.798 ± 0.01	0.751 ± 0.009	0.73 ± 0.009	0.719 ± 0.009	0.709 ± 0.009	0.697 ± 0.009

CN(C)c1ccccc1 + COc1ccccc1
viscosity [mPa·s], 101 kPa
Conditions	x1 = 0.1072	x1 = 0.2092	x1 = 0.3052	x1 = 0.406	x1 = 0.5082	x1 = 0.6053	x1 = 0.6916	x1 = 0.7895	x1 = 0.8939
293.15 K	1.123 ± 0.024	1.171 ± 0.025	1.21 ± 0.025	1.247 ± 0.026	1.281 ± 0.027	1.309 ± 0.027	1.331 ± 0.028	1.349 ± 0.028	1.359 ± 0.028
298.15 K	1.039 ± 0.022	1.083 ± 0.023	1.124 ± 0.024	1.159 ± 0.024	1.191 ± 0.025	1.22 ± 0.026	1.241 ± 0.026	1.255 ± 0.026	1.27 ± 0.027
303.15 K	0.957 ± 0.02	0.994 ± 0.021	1.032 ± 0.022	1.064 ± 0.022	1.092 ± 0.023	1.116 ± 0.023	1.135 ± 0.024	1.142 ± 0.024	1.158 ± 0.024
308.15 K	0.887 ± 0.019	0.917 ± 0.019	0.949 ± 0.02	0.98 ± 0.021	1.004 ± 0.021	1.025 ± 0.022	1.036 ± 0.022	1.042 ± 0.022	1.056 ± 0.022
313.15 K	0.811 ± 0.017	0.838 ± 0.018	0.866 ± 0.018	0.897 ± 0.019	0.92 ± 0.019	0.936 ± 0.02	0.947 ± 0.02	0.955 ± 0.02	0.969 ± 0.02
318.15 K	0.767 ± 0.016	0.791 ± 0.017	0.815 ± 0.017	0.845 ± 0.018	0.869 ± 0.018	0.883 ± 0.019	0.889 ± 0.019	0.898 ± 0.019	0.911 ± 0.019
323.15 K	0.709 ± 0.015	0.728 ± 0.015	0.751 ± 0.016	0.778 ± 0.016	0.8 ± 0.017	0.811 ± 0.017	0.814 ± 0.017	0.823 ± 0.017	0.836 ± 0.018

C=CC#N + CS(C)=O
303.15 K, 101.3 kPa
Conditions	viscosity [mPa·s]
x1 = 0.102	1.529 ± 0.0092
x1 = 0.2051	1.288 ± 0.0079
x1 = 0.3025	1.096 ± 0.0068
x1 = 0.3994	0.9277 ± 0.0059
x1 = 0.5057	0.771 ± 0.005
x1 = 0.6018	0.6508 ± 0.0045
x1 = 0.7045	0.5395 ± 0.004
x1 = 0.8066	0.4478 ± 0.0036
x1 = 0.8999	0.3757 ± 0.0033

CC(=O)CC(C)=O + CS(C)=O
303.15 K, 101 kPa
Conditions	viscosity [mPa·s]
x2 = 0.1118	0.819 ± 0.24
x2 = 0.2207	0.9187 ± 0.25
x2 = 0.3269	1.032 ± 0.26
x2 = 0.4303	1.117 ± 0.27
x2 = 0.5312	1.209 ± 0.27
x2 = 0.6296	1.302 ± 0.27
x2 = 0.7256	1.427 ± 0.28

O=C1c2ccccc2C(=O)C1(O)O + C[N+](C)(C)CCO.[Cl-]
Conditions	viscosity [mPa·s]
323.15 K, 100 kPa, x2 = 0.571	30500

C=CC#N + Cc1cc(C)cc(C)c1
307.4 K, 101.33 kPa
Conditions	viscosity [mPa·s]
x2 = 0.121	0.551 ± 0.005
x2 = 0.3367	0.495 ± 0.004
x2 = 0.5736	0.424 ± 0.004
x2 = 0.649	0.406 ± 0.004
x2 = 0.7535	0.373 ± 0.003
x2 = 0.9118	0.332 ± 0.003
